Test results: paper PMC7144209, “Design, synthesis and anticancer activity of naphthoquinone derivatives” (Journal of Enzyme Inhibition and Medicinal Chemistry, 2020)

Key:
L02 = test: MTT cell viability assay, L02 cells; assay type: cell-based; conditions: Homo sapiens, n = 3
U87 = test: MTT cell viability assay, U87 cells; assay type: cell-based; conditions: Homo sapiens, U-87 MG, 48 h, n = 3
Experimental: (§1) MGC-803, SGC-7901, U87 and SMMC-7721 cell lines were cultured in DMEM supplemented with 10% foetal bovine serum, 100 IU/mL penicillin/streptomycin. The cells were incubated in an atmosphere containing 5% CO2 at 37 °C.
(§2) MGC-803, SGC-7901, U87 and SMMC-7721 cells were plated in 96-well plate at 7000 per well. Cells were incubated with the different concentrations of the compounds for 48 h. Subsequently, MTT (0.5 mg/mL) were used to test the cell viability, then 150 μL DMSO was added to each well after cells were incubated for 4 h and the absorbance was measured at 492 nm.

SGC-7901 = test: MTT cell viability assay, SGC-7901 cells; assay type: cell-based, human; conditions: Homo sapiens, SGC-7901, 48 h, n = 3
Experimental: as §1, §2

MGC-803 = test: MTT cell viability assay, MGC-803 cells; assay type: cell-based; conditions: Homo sapiens, MGC-803, 48 h, n = 3
Experimental: as §1, §2

SMMC-7721 = test: MTT cell viability assay, SMMC-7721 cells; assay type: cell-based; conditions: Homo sapiens, 48 h, n = 3
Experimental: as §1, §2

CC(C)=CCC(OC(=O)CCc1ccccc1)C1=CC(=O)c2c(O)ccc(O)c2C1=O (stereo not drawn) [Compound 3, 1-(5,8-dihydroxy-1,4-dioxo-1,4-dihydronaphthalen-2-yl)-4-methylpent-3-en-1-yl-3-phenylpropanoate]
IC50 (L02): 13.6 ± 1.5 µM | IC50 (U87): 8 ± 0.85 µM | IC50 (SGC-7901): 10.6 ± 4.3 µM | IC50 (MGC-803): 4.5 ± 1.1 µM | IC50 (SMMC-7721): 15.6 ± 3.3 µM | melting point: 60 °C

CCCCCCN(CCCCCC)C(=O)CCC(=O)OC(CC=C(C)C)C1=CC(=O)c2c(O)ccc(O)c2C1=O (stereo not drawn) [Compound 23, 1-(5,8-dihydroxy-1,4-dioxo-1,4-dihydronaphthalen-2-yl)-4-methylpent-3-en-1-yl 4-(dihexylamino)-4-oxobutanoate]
IC50 (L02): > 100 µM | IC50 (U87): > 100 µM | IC50 (SGC-7901): > 100 µM | IC50 (MGC-803): > 100 µM | IC50 (SMMC-7721): > 100 µM

CC(C)=CCC(OC(=O)CCC(=O)NCCc1ccccc1Cl)C1=CC(=O)c2c(O)ccc(O)c2C1=O (stereo not drawn) [Compound 18, 1-(5,8-dihydroxy-1,4-dioxo-1,4-dihydronaphthalen-2-yl)-4-methylpent-3-en-1-yl-4-((2-chlorophenethyl)amino)-4-oxobutanoate]
IC50 (L02): 20.2 ± 2 µM | IC50 (U87): 7.7 ± 4.4 µM | IC50 (SGC-7901): 23.7 ± 0.5 µM | IC50 (MGC-803): 6.6 ± 4.7 µM | IC50 (SMMC-7721): 17.9 ± 1.6 µM | melting point: 97.8 °C

COc1ccccc1NC(=O)CCC(=O)OC(CC=C(C)C)C1=CC(=O)c2c(O)ccc(O)c2C1=O (stereo not drawn) [Compound 15, 1-(5,8-dihydroxy-1,4-dioxo-1,4-dihydronaphthalen-2-yl)-4-methylpent-3-en-1-yl-4-((2-methoxyphenyl)amino)-4-oxobutanoate]
IC50 (L02): > 100 µM | IC50 (U87): > 100 µM | IC50 (SGC-7901): > 100 µM | IC50 (MGC-803): > 100 µM | IC50 (SMMC-7721): > 100 µM | melting point: 113 °C

CC(C)=CCC(OC(=O)CCC(=O)Nc1cccc2ccccc12)C1=CC(=O)c2c(O)ccc(O)c2C1=O (stereo not drawn) [Compound 16, 1-(5,8-dihydroxy-1,4-dioxo-1,4-dihydronaphthalen-2-yl)-4-methylpent-3-en-1-yl-4-(naphthalen-1-ylamino)-4-oxobutanoate]
IC50 (L02): 13 ± 2.4 µM | IC50 (U87): 5.41 ± 0.67 µM | IC50 (SGC-7901): 5.6 ± 2.6 µM | IC50 (MGC-803): 5.9 ± 2.6 µM | IC50 (SMMC-7721): 24.3 ± 1.7 µM | melting point: 127 °C

CC(C)=CCC(OC(=O)C=Cc1ccccc1)C1=CC(=O)c2c(O)ccc(O)c2C1=O (stereo not drawn) [Compound 4, 1-(5,8-dihydroxy-1,4-dioxo-1,4-dihydronaphthalen-2-yl)-4-methylpent-3-en-1-yl cinnamate]
IC50 (L02): > 100 µM | IC50 (U87): 65.7 ± 2.7 µM | IC50 (SGC-7901): 75.1 ± 0.4 µM | IC50 (MGC-803): > 100 µM | melting point: 85 °C

CC(C)=CCC(OC(=O)COc1ccc(Cl)cc1)C1=CC(=O)c2c(O)ccc(O)c2C1=O (stereo not drawn) [Compound 6, 1-(5,8-dihydroxy-1,4-dioxo-1,4-dihydronaphthalen-2-yl)-4-methylpent-3-en-1-yl-2-(4-chlorophenoxy)acetate]
IC50 (L02): > 100 µM | IC50 (U87): > 100 µM | IC50 (SGC-7901): > 100 µM | IC50 (MGC-803): > 100 µM | IC50 (SMMC-7721): > 100 µM | melting point: 102 °C

COc1cccc2c1C(=O)c1c(O)c3c(c(O)c1C2=O)C[C@@](O)(C(=O)CO)C[C@@H]3O[C@H]1C[C@H](N)[C@H](O)[C@H](C)O1 [ADM, Adriamycin, reference compound]
IC50 (L02): > 100 µM | IC50 (U87): 0.57 ± 0.32 µM | IC50 (SGC-7901): 0.72 ± 0.12 µM | IC50 (MGC-803): 0.48 ± 0.06 µM | IC50 (SMMC-7721): 0.46 ± 0.63 µM

CC(C)=CCC(OC(=O)CCC(=O)NCCc1ccc(Br)cc1)C1=CC(=O)c2c(O)ccc(O)c2C1=O (stereo not drawn) [Compound 19, 1-(5,8-dihydroxy-1,4-dioxo-1,4-dihydronaphthalen-2-yl)-4-methylpent-3-en-1-yl-4-((4-bromophenethyl)amino)-4-oxobutanoate]
IC50 (L02): 8.5 ± 0.4 µM | IC50 (U87): 9.1 ± 2.5 µM | IC50 (SGC-7901): 7.6 ± 2.3 µM | IC50 (MGC-803): 5.7 ± 2.4 µM | IC50 (SMMC-7721): 17.9 ± 1 µM | melting point: 134 °C

COc1ccc(OC)c2c1C(=O)C=C(C(O)CC=C(C)C)C2=O (stereo not drawn) [Compound 1, 2-(1-hydroxy-4-methylpent-3-en-1-yl)-5,8-dimethoxynaphthalene-1,4-dione]
IC50 (L02): > 100 µM | IC50 (U87): > 100 µM | IC50 (SGC-7901): > 100 µM | IC50 (MGC-803): > 100 µM | IC50 (SMMC-7721): > 100 µM | melting point: 94.3 °C
